Like-named read-outs stand apart in the source and are kept apart here.
Tests used:
[1] = tested on: Propionic Acidemia (PA) primary fibroblasts GM00371; test: Mitochondrial respiration, XFe96 Extracellular Flux Analyzer (OCR/ECAR), PA fibroblasts GM00371; type: cell-based; conditions: Homo sapiens, Fibroblast, assay condition C (10 mM glucose, 10% FBS), 50 μM, read-out: Increase in Maximal Respiratory Capacity AUC
[2] = tested on: Methylmalonic Acidemia (MMA) primary fibroblasts Tsi 5224; test: Mitochondrial respiration, XFe96 Extracellular Flux Analyzer (OCR/ECAR), MMA fibroblasts Tsi 5224; type: cell-based; conditions: Homo sapiens, Fibroblast;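 as to Increase in Maximal Respiratory Capacity AUC: relative to vehicle DMSO control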
Description: The effect of the compounds of the present disclosure on mitochondrial respiration was measured with a XFe96 Extracellular Flux Analyzer (Seahorse Bioscience, Agilent Technologies) and Oxygen consumption Rate (OCR) and Extracellular acidification rate (ECAR) determined.
Cell culture and treatments. Primary adherent fibroblasts were cultured in minimum essential medium (MEM) (Gibco, 25030081) supplemented with 2 mM L-Glutamine (Gibco, 25030081), 15% fetal bovine serum (FBS) (Gibco, 26400044) and 1% penicillin/streptomycin (Gibco, 5140122) at 37° C. and 5% CO2. Cells were collected for either passaging or experiment at ˜70-80% confluence. Cells were obtained by trypsinization and seeded at 20000 cells/well in cell culture microplates (Seahorse Bioscience, 101085-004) and allowed to adhere for 16 hours in culture media.
By profiling different primary cells and/or optimizing their culture media or environmental components one can select cell lines and/or conditions that are appropriate for the biological or disease model. In the present example, 24 hours prior to OCR and ECAR profiling, media was changed to Dulbecco's Modified Eagle Medium (DMEM, Agilent Seahorse 103575-100) with the appropriate supplements for the different primary cells (10 mM glucose, 2 mM L-glutamine, 1 mM pyruvate, 10% FBS; 1 mM glucose, 2 mM L-glutamine, 1 mM pyruvate, 10% FBS; 10 mM glucose, 10% FBS; 5 mM glucose 10% FBS; 1 mM glucose 10% FBS). Cells used in this example were: Propionic Acidemia (PA) (GM00371, GM03590 Coriell Institute for Medical Research, Tsi 6337, Tsi 4626, Tsi 3618 Trans-Hit Bio), Methylmalonic Acidemia (MMA) (GM01673, Coriell Institute for Medical Research, Tsi 5224 Trans-Hit Bio), Branched chain ketoacid dehydrogenase kinase (BCKDK) (GM00612, GM00649 Coriell Institute for Medical Research), Subnormal activation of pyruvate dehydrogenase complex (PDH) (GM01503 Coriell Institute for Medical Research), Very long-chain acyl-CoA dehydrogenase (VLCAD) (GM17475), Leigh Syndrome (LS) (GM03672, GM13411 Coriell Institute for Medical Research), Pyruvate Carboxylase Deficiency (PC) (GM00444 Coriell Institute for Medical Research), Glutaric Acidemia-I (GA) (GM10653), Friedreich's Ataxia (FXN) (GM04078 Coriell Institute for Medical Research, Huntington's disease (HD) (GM21756 Coriell Institute for Medical Research), Ornithine Transcarbamylase Deficiency (OTC) (GM12756 Coriell Institute for Medical Research), Kearns-Sayre Syndrome (KSS) (GM06225 Coriell Institute for Medical Research).
One hour before the assay, the cells were washed with freshly prepared unbuffered serum free-Seahorse XF Assay medium (Seahorse Bioscience, North America, USA, 103575-100) with the same supplements as for the previous 24 hour incubation.
After baseline measurements of OCR, cells were challenged with compounds of the present disclosure at different concentrations (10 to 50 μM) or vehicle (DMSO, 0.1%) and a post-compound baseline was recorded. OCR was measured after sequentially adding to each well 1 μg/ml oligomycin (inhibitor of ATP synthase Sigma-Aldrich, 753531), then maximal OCR was determined with carbonyl cyanide 4-(trifluoromethoxy) phenylhydrazone (FCCP, Sigma-Aldrich, C2920), (uncoupler of oxidative phosphorylation) and 0.5 μM of rotenone (Sigma-Aldrich, R8875) plus antimycin A (Sigma-Aldrich, A8674) (inhibitors of mitochondrial complex I and III) for determination of rotenone-antimycin insensitive respiration together with Hoechst for nuclear staining in situ when normalized to cell counts. After the analysis and nuclear staining, the XFp microplate was transferred to the Cytation 5, and the nuclear images were captured, the individual nuclei were identified and counted by BioTek Gen5 software. Data were expressed as pmol of O2 per minute and normalized by nuclear staining and baselined to pre-compound addition.
Assay conditions were as stated below.
Assay specifics on assay conditions are indicated below when readouts were normalized to cell counts. […]

[3] = tested on: monocyte-derived M1 macrophages; test: M1 differentiation assay (macrophage TNFα, IL6, IL10 ELISA, FACS); type: cell-based, human
Description: Monocytes were isolated by positive isolation with CD14+ microbeads (Miltenyi, 130-050-201). Monocytes were 99% viable and were 96% purity as analyzed by FACS and CD14+ (BD, 563561). 100,000 monocytes along with compounds at the dose of 10 and 50 μM were allowed to differentiate to macrophages with 10 ng/ml GMCSF (R&D, 15-GM-050/CF) in RPMI complete media (Invitrogen, 22400089) with 15% FBS (Hyclone SV30087.03) and 1% Penicillin-Streptomycin (Gibco, 15140-122). On day 2 and 4 half the media was refreshed with fresh GM-CSF and compounds at 10 and 50 μM dose. On day 6 the macrophages were matured with GMCSF, IFNγ (R&D 285-IF-100/CF) and LPS (Sigma, L6143) in the presence of 10 μM and 50 μM of compounds. After 24h, supernatant was collected for the measurement of TNFα (DKW, 1117202) IL6 (DKW, 1110602), IL10 (DKW, 1110003) by ELISA. Macrophages were detached gently on ice with EDTA (Invitrogen, 15575-038) and analyzed by FACS (BD LSR Fortessa, 853492). Cells were stained for live/dead dye, surface and intracellular markers with fixation/permeabilization solution (BD, 554714) and ALIVE/DEAD™ Fixable Near-IR Dead Cell Stain Kit (BD, L34976), mouse anti human CD86 APC (BD, 555660), mouse anti-human CD163 PE (BD, 556018), mouse anti-human CD68 FITC (BD, 562117) or isotype controls anti-mouse IgG1 κ PE (BD, 559320) and anti-mouse IgG1 κ APC (BD, Anti mouse IgG1 κ APC (BD, 55571). Mature M1 macrophages were defined as CD86+CD68+CD163− and increase in TNFα, IL6, and decrease in IL-10.

[4] = tested on: primary fibroblasts (healthy controls and PA, MMA, BCKDK, PDH, VLCAD, LS, PC, GA, VLCFA, KSS, FXN, HD); test: Measurement of ROS (H2DCFDA) in primary fibroblasts; type: cell-based, human; conditions: Homo sapiens, procedure Example 812, Assay Condition C
Description: Primary adherent fibroblasts were cultured in minimum essential medium (MEM) (Gibco, 25030081) supplemented with 2 mM L-Glutamine (Gibco, 25030081), 15% fetal bovine serum (FBS) (Gibco, 26400044) and 1% penicillin/streptomycin (Gibco, 5140122) at 37° C. and 5% CO2. Cells were collected for either passaging or experiment at ˜70-80% confluence. Cells were obtained by trypsinization and seeded in cell culture microplates either white plate (Thermo Fisher Scientific, 152028) for luminescent measurement or black plate (Thermo Fisher Scientific, 165305) for fluorescent based read out for different assays listed below. Cells were obtained by trypsinization and […] were seeded and allowed to adhere for 16-18 hours to have confluency around 70-80% in the cell well with culture media. After 24 hours prior to measurements (37° C., 5% CO2) media was changed to Dulbecco's Modified Eagle Medium (DMEM, Agilent Seahorse cat #103575-100) with the appropriate supplements as stated below.
Primary fibroblasts assayed were Healthy controls (GM00041, GM05659, GM23974 Coriell Institute for Medical Research), Propionic Acidemia (PA) (GM00371, GM03590 Coriell Institute for Medical Research, Tsi 6337 Trans-Hit Bio), Methylmalonic Acidemia (MMA) (GM01673, Coriell Institute for Medical Research, Tsi 5224, Tsi 4290 Trans-Hit Bio), Branched chain ketoacid dehydrogenase kinase (BCKDK) (GM00612, GM00649 Coriell Institute for Medical Research), Subnormal activation of pyruvate dehydrogenase complex (PDH) (GM01503 Coriell Institute for Medical Research), Very long-chain acyl-CoA dehydrogenase (VLCAD) (GM17475), Leigh Syndrome (LS) (GM03672, GM13411 Coriell Institute for Medical Research), Pyruvate Carboxylase Deficiency (PC) (GM00444 Coriell Institute for Medical Research), Glutaric Acidemia-I (GA), Impaired VLCFA oxidation (VLCFA) (GM13262), Kearns-Sayre Syndrome (KSS) (GM06225 Coriell Institute for Medical Research), Friedreich's Ataxia (FXN), Huntington's disease (HD) (GM21756 Coriell Institute for Medical Research). Next, cells were treated with compounds (10 μM) and ROS H2DCFDA (22 μM) dye for 2 hours in PA, MMA lines and for 24h for the other fibroblast lines. Kinetic read was started immediately with a i3x plate reader (492/527 nm) for 60 minutes.
A total dead cell count was performed as described in Example 817 and only alive cells were used for analysis.

[5] = MMA Tsi 5224, assay condition A (10 mM glucose, 2 mM L-glutamine, 1 mM pyruvate, 10% FBS), read-out: Increase in Maximal Respiratory Capacity AUC
[6] = MMA Tsi 5224, assay condition D (1 mM glucose, 10% FBS), read-out: Increase in Maximal Respiratory Capacity AUC
[7] = FXN GM04078, read-out: Decreased ROS by at least 10%
[8] = Fibroblast, PC GM00444, read-out: Decreased ROS by at least 10%
[9] = Fibroblast, PC GM00444, read-out: Decreased ROS by at least 30%
[10] = FXN GM04078, read-out: Decreased ROS by at least 30%

**Q.** With `COC(=O)CCC(=O)CC(=O)SCCNC(=O)CCNC(=O)[C@H](O)C(C)(C)CO` [Compound 5, methyl 6-[(2-[3-[(2R)-2,4-dihydroxy-3,3-dimethylbutanamido]propanamido]ethyl)sulfanyl]-4,6-dioxo-hexanoate] as the compound, how does the activation at 50 µM [1] read?
**A.** ≥ 10%

**Q.** How did the activation at 10 µM [2, 5] turn out when `COC(=O)C(=O)SCCNC(=O)CCNC(=O)[C@H](O)C(C)(C)CO` [Compound 30, Methyl (R)-2-((2-(3-(2,4-dihydroxy-3,3-dimethylbutanamido)propanamido)ethyl)thio)-2-oxoacetate] was run?
**A.** ≥ 10%

**Q.** What does the source list for `COC(=O)CC(SCCNC(=O)CCNC(=O)[C@H](O)C(C)(C)COP(=O)(O)O)C(=O)OC` (stereo partly drawn) [Compound 86, dimethyl 2-((2-(3-((R)-2-hydroxy-3,3-dimethyl-4-(phosphonooxy)butanamido)propanamido)ethyl)thio)succinate]?
**A.** activation at 10 µM [2, 6]: ≥ 10%; % Increase in Live Macrophage Cells ([3]; 10 uM): ≥20%

**Q.** How did the inhibition at 10 µM [4, 7] turn out when `CC(O)CC(=O)CC(=O)CC(=O)SCCNC(=O)CCNC(=O)[C@H](O)C(C)(C)CO` (stereo partly drawn) [Compound 379] was run?
**A.** ≥ 10%

**Q.** `CC(=O)C(C)C(=O)SCCNC(=O)CCNC(=O)[C@H](O)C(C)(C)CO` (stereo partly drawn) [Compound 396, (2R)-2,4-dihydroxy-3,3-dimethyl-N-[2-([2-[(2-methyl-3-oxobutanoyl)sulfanyl]ethyl]carbamoyl)ethyl]butanamide] was tested. Which activation at 50 µM [1] did it give?
**A.** ≥ 10%

**Q.** What about the inhibition at 10 µM [4, 8] of the same compound?
**A.** ≥ 10%

**Q.** And the inhibition at 10 µM [4, 9]?
**A.** ≥ 30%

**Q.** With `COC(=O)[C@@H](N)CCC(=O)SCCNC(=O)CCNC(=O)[C@H](O)C(C)(C)CO` [Compound 412, methyl (2S)-2-amino-5-[(2-[3-[(2R)-2,4-dihydroxy-3,3-dimethylbutanamido]propanamido]ethyl)sulfanyl]-5-oxopentanoate] as the compound, how does the inhibition at 10 µM [4, 8] read?
**A.** ≥ 10%

**Q.** What about the inhibition at 10 µM [4, 9] of the same compound?
**A.** ≥ 30%

**Q.** And the inhibition at 10 µM [4, 7]?
**A.** ≥ 10%

**Q.** And the inhibition at 10 µM [4, 10]?
**A.** ≥ 30%

**Q.** For `COC(=O)[C@@H](N)CC(=O)SCCNC(=O)CCNC(=O)[C@H](O)C(C)(C)CO` [Compound 415], which activation at 10 µM ([2]; MMA Tsi 5224, assay condition D (1 mM glucose, 10% FBS), read-out: Increase in Spare Capacity AUC) is on record?
**A.** ≥ 10%

**Q.** What about the “% decrease in Live Macrophage Cells” value ([3]; 50 uM) of the same compound?
**A.** ≥20%

**Q.** What about the activation at 10 µM ([3]; Homo sapiens, Macrophage, 10 uM, read-out: % Increase in IL-10 Secretion) of the same compound?
**A.** ≥ 30%

**Q.** What about the inhibition at 10 µM ([3]; Homo sapiens, Macrophage, 10 uM, read-out: % decrease in Macrophage IL-6 Secretion) of the same compound?
**A.** ≥ 30%

**Q.** What about the inhibition at 10 µM ([3]; Homo sapiens, Macrophage, 10 uM, read-out: % decrease in Macrophage TNFα Secretion) of the same compound?
**A.** ≥ 30%

**Q.** `CC(C)(COC(=O)CCC(=O)O)[C@@H](O)C(=O)NCCC(=O)NCCSC(=O)CCC(=O)O` [Compound 1232] was tested. Which activation at 10 µM [2, 5] did it give?
**A.** ≥ 10%

**Q.** And the activation at 10 µM [2, 6]?
**A.** ≥ 10%

**Q.** And the inhibition at 10 µM ([4]; Fibroblast, VLCFA GM13262, read-out: Decreased ROS by at least 10%)?
**A.** ≥ 10%

**Q.** What about the inhibition at 10 µM ([4]; Fibroblast, VLCFA GM13262, read-out: Decreased ROS by at least 30%) of the same compound?
**A.** ≥ 30%

**Q.** What about the inhibition at 10 µM [4, 7] of the same compound?
**A.** ≥ 10%

**Q.** And the inhibition at 10 µM [4, 10]?
**A.** ≥ 30%

**Q.** With `CC(C)(C)OC(=O)N[C@@H](CC(=O)SCCNC(=O)CCNC(=O)[C@H](O)C(C)(C)CO)C(=O)OC(C)(C)C` [Compound 1318] as the compound, how does the activation at 10 µM ([2]; MMA Tsi 5224, assay condition B (1 mM glucose, 2 mM L-glutamine, 1 mM pyruvate, 10% FBS), read-out: Increase in Spare Capacity AUC) read?
**A.** ≥ 10%
